We go through nine molecules from DBAASP.

Converted amounts (≈) assume the structure as drawn. “And” between values parts separate entries of the source, which are not always exact repeats. Equal values may be shown once.

Some test systems named below: Escherichia coli BW25113; Staphylococcus aureus; Escherichia coli; Micrococcus luteus A270; Micrococcus luteus; Listeria innocua; Aeromonas hydrophila; Vibrio harveyi.
What all share (assay): ≥ marks a high value that may be exact or a test limit, other limits are often not marked, values filed in µg/mL are converted to µM
The subject of assay [1] is Salmonella enterica subsp. enterica serovar Enteritidis.
In assay [2] the test system is Staphylococcus aureus ATCC 6538P.
The test system of assay [3] is Escherichia coli ATCC 25922.
The subject of assay [4] is Staphylococcus epidermidis ATCC 12228.
For assay [5], the system named is Salmonella enterica subsp. enterica serovar Typhimurium ATCC 14028.
The subject of assay [6] is Pseudomonas aeruginosa ATCC 27853.
Assay [7] relates to Shigella dysenteriae ATCC 9752.
Assay [8] concerns Staphylococcus aureus TK784.
Assay [9] concerns Klebsiella pneumoniae ATCC 10031.
Assay [10] relates to Bacillus subtilis ATCC 6633.
In assay [11] the test system is Micrococcus luteus ATCC 10240.
In assay [12] the test system is Staphylococcus aureus NCTC 10788.
In assay [13] the test system is Staphylococcus aureus NCTC 12493.
In assay [14] the test system is Candida albicans NCYC 1467.
For assay [15], the system named is Enterococcus faecalis NCTC 12697.
Assay [16] has as its system Klebsiella pneumoniae ATCC 43816.
In assay [17] the test system is Escherichia coli NCTC 10418.
The subject of assay [18] is Cryptococcus neoformans ATCC 34881.
Assay [19] concerns Escherichia coli ATCC 27325.
Assay [20] has as its system Streptococcus mutans ATCC 25175.
In assay [21] the test system is Saccharomyces cerevisiae ATCC 44774.
Assay [22] relates to Pseudomonas putida ATCC 17426.
Assay [23] relates to Candida albicans ATCC 10231.
Assay [24] concerns Bacillus subtilis ATCC 62037.
In assay [25] the test system is Staphylococcus aureus ATCC 15752.
Assay [26] has as its system Salmonella enterica subsp. enterica serovar Enteritidis ATCC 13076.

By MIC is commonly meant the smallest concentration in the dilution series that meets the test's criterion for growth inhibition. Read a high MIC as weaker potency. Molecule `CC[C@H](C)[C@H](NC(=O)[C@@H]1CCCN1C(=O)[C@H](CCCN=C(N)N)NC(=O)[C@H](CCCN=C(N)N)NC(=O)[C@H](Cc1ccccc1)NC(=O)[C@@H](N)CCCN=C(N)N)C(=O)N[C@@H](CCCN=C(N)N)C(=O)N[C@@H](CCCN=C(N)N)C(=O)N1CCC[C@H]1C(=O)N1CCC[C@H]1C(=O)N[C@H](C(=O)N[C@@H](CCCN=C(N)N)C(=O)N1CCC[C@H]1C(=O)N1CCC[C@H]1C(=O)N[C@@H](Cc1c[nH]c2ccccc12)C(=O)N[C@@H](Cc1ccc(O)cc1)C(=O)N1CCC[C@H]1C(=O)O)[C@@H](C)CC` [RFRRPIRRPPIRPPWYP] registered an MIC against Escherichia coli BW25113 of 12 µM (≈ 27.1 µg/mL).
In the case of `CC(C)C[C@H](NC(=O)[C@@H](NC(=O)[C@@H](NC(=O)[C@@H](N)CO)[C@@H](C)O)C(C)C)C(=O)N[C@H](C(=O)N[C@@H](CO)C(=O)N[C@@H](CCCCN)C(=O)N[C@@H](Cc1ccc(O)cc1)C(=O)N[C@@H](CCCN=C(N)N)C(=O)O)[C@@H](C)O` [STVLTSKYR], the MIC against Staphylococcus aureus was 2 µM (≈ 2.11 µg/mL); in assay [1] it was 8 µM and 7.5 µM; in the assay with Escherichia coli, 8 µM (≈ 8.43 µg/mL); in the assay with Micrococcus luteus A270, 15 µM (≈ 15.8 µg/mL); against Micrococcus luteus it was 15 µM (≈ 15.8 µg/mL); against Listeria innocua it was 2 µM (≈ 2.11 µg/mL).
With `CC[C@H](C)[C@H](NC(=O)[C@@H]1CCCN1C(=O)[C@H](CCCN=C(N)N)NC(=O)[C@H](CCCN=C(N)N)NC(=O)[C@H](Cc1ccccc1)NC(=O)[C@@H](N)CCCN=C(N)N)C(=O)N[C@@H](CCCN=C(N)N)C(=O)N[C@@H](CCCN=C(N)N)C(=O)N[C@@H](CCCN=C(N)N)C(=O)N1CCC[C@H]1C(=O)N[C@H](C(=O)N[C@@H](CCCN=C(N)N)C(=O)N1CCC[C@H]1C(=O)N1CCC[C@H]1C(=O)N[C@@H](Cc1c[nH]c2ccccc12)C(=O)N[C@@H](Cc1ccc(O)cc1)C(=O)N[C@@H](CCCN=C(N)N)C(=O)O)[C@@H](C)CC` [RFRRPIRRRPIRPPWYR], the MIC in the assay on Escherichia coli BW25113 was found to be 8 µM (≈ 19 µg/mL).
For `CC(C)C[C@H](NC(=O)[C@H](Cc1c[nH]c2ccccc12)NC(=O)[C@H](CCCCN)NC(=O)[C@H](CCCCN)NC(=O)[C@H](CC(C)C)NC(=O)[C@H](Cc1c[nH]c2ccccc12)NC(=O)[C@H](CCCCN)NC(=O)[C@H](CC(C)C)NC(=O)[C@@H](N)CC(C)C)C(=O)N[C@@H](CCCCN)C(=O)N[C@@H](CCCCN)C(N)=O` [LLKWLKKWLKK], the MIC in assay [2] is 1.68 µM (≈ 2.5 µg/mL); in assay [3] it was 27 µM (≈ 40 µg/mL); in assay [4], 1.68 µM (≈ 2.5 µg/mL); in assay [5] it was 53.9 µM (≈ 79.9 µg/mL); in assay [6], 13.5 µM (≈ 20 µg/mL); in [7], at least 53.9 µM. Moreover, the minimum inhibitory concentration (MIC) in [8] was 27 µM (≈ 40 µg/mL); in [9] it was 27 µM (≈ 40 µg/mL); in assay [10] it was 1.68 µM (≈ 2.5 µg/mL); in assay [11], 3.37 µM (≈ 5 µg/mL).
For `CC[C@H](C)[C@H](NC(=O)[C@@H]1CCCN1C(=O)[C@H](Cc1c[nH]c2ccccc12)NC(=O)[C@H](CCCN=C(N)N)NC(=O)[C@H](Cc1c[nH]c2ccccc12)NC(=O)[C@@H](N)CCCN=C(N)N)C(=O)N[C@@H](CCCN=C(N)N)C(=O)N[C@@H](CCCN=C(N)N)C(=O)N1CCC[C@H]1C(=O)N1CCC[C@H]1C(=O)N[C@H](C(=O)N[C@@H](CCCN=C(N)N)C(=O)N1CCC[C@H]1C(=O)N1CCC[C@H]1C(=O)N[C@@H](Cc1c[nH]c2ccccc12)C(=O)N[C@@H](Cc1ccc(O)cc1)C(=O)N1CCC[C@H]1C(=O)O)[C@@H](C)CC` [RWRWPIRRPPIRPPWYP], the MIC against Escherichia coli BW25113 was determined as 8 µM (≈ 18.6 µg/mL).
Consider `CC[C@H](C)[C@@H]1NC(=O)[C@H](C)NC(=O)[C@@H](NC(=O)[C@H](Cc2ccccc2)NC(=O)[C@@H](NC(=O)[C@H](CCCCN)NC(=O)[C@H](Cc2c[nH]c3ccccc23)NC(=O)[C@@H]2CCCN2C(=O)[C@H](CC(C)C)NC(=O)[C@H](Cc2ccccc2)NC(=O)[C@H](CCCCN)NC(=O)[C@@H](N)CCCCN)[C@@H](C)CC)CSSC[C@@H](C(=O)O)NC(=O)[C@H](CCCCN)NC(=O)[C@H](CCCCN)NC(=O)[C@H]([C@@H](C)O)NC1=O` [KKFLPWKIFCAITKKC], for which the minimal inhibitory concentration (MIC) is 8 µM (≈ 15.6 µg/mL) in [12]; 64 µM (≈ 125 µg/mL) in assay [6]; 8 µM (≈ 15.6 µg/mL) in [13]; 8 µM (≈ 15.6 µg/mL) in assay [14]; at least 256 µM in [15]; at least 32 µM in [16]. Further, in [17], the minimum inhibitory concentration (MIC) stood at 16 µM (≈ 31.2 µg/mL).
Take `CC[C@H](C)[C@H](NC(=O)CNC(=O)[C@H](CCCCN)NC(=O)[C@H](CCCCN)NC(=O)[C@H](CCC(N)=O)NC(=O)[C@H](CC(C)C)NC(=O)[C@H](CCCN=C(N)N)NC(=O)[C@H](CC(C)C)NC(=O)[C@H](CC(C)C)NC(=O)[C@H](CCCN=C(N)N)NC(=O)[C@H](CCCN=C(N)N)NC(=O)[C@H](CC(C)C)NC(=O)[C@H](CC(C)C)NC(=O)[C@H](CCCN=C(N)N)NC(=O)[C@H](CCSC)NC(=O)[C@H](C)NC(=O)[C@H](CCCCN)NC(=O)[C@@H]1CCCN1C(=O)[C@H](C)N)C(=O)O` [APKAMRLLRRLLRLQKKGI]: the MIC in assay [18] was determined as 0.221 µM (≈ 0.5 µg/mL); in [19] it was 0.442 µM (≈ 1 µg/mL); in [20] it was 0.442 µM (≈ 1 µg/mL); in assay [21], 0.221 µM (≈ 0.5 µg/mL); in [22] it was 0.442 µM (≈ 1 µg/mL); in assay [23], 0.221 µM (≈ 0.5 µg/mL). In addition, the MIC in assay [24] was 0.442 µM (≈ 1 µg/mL); in assay [25], 0.884 µM (≈ 2 µg/mL); in [26] it was 0.442 µM (≈ 1 µg/mL).
Regarding `CC[C@H](C)[C@H](NC(=O)[C@H](C)NC(=O)[C@H](CCCN=C(N)N)NC(=O)[C@H](Cc1cnc[nH]1)NC(=O)[C@@H](NC(=O)[C@H](C)NC(=O)[C@H](CCCN=C(N)N)NC(=O)[C@@H](NC(=O)CNC(=O)[C@H](Cc1cnc[nH]1)NC(=O)[C@H](CO)NC(=O)[C@@H](NC(=O)[C@H](Cc1c[nH]c2ccccc12)NC(=O)CNC(=O)[C@@H](NC(=O)[C@@H](NC(=O)[C@H](C)NC(=O)[C@H](Cc1cnc[nH]1)NC(=O)[C@@H](NC(=O)[C@@H](N)Cc1ccccc1)[C@@H](C)CC)[C@@H](C)CC)[C@@H](C)CC)[C@@H](C)CC)C(C)C)[C@@H](C)CC)C(=O)N[C@@H](Cc1cnc[nH]1)C(N)=O` [FIHAIIGWISHGVRAIHRAIH], the figures for the minimum inhibitory concentration (MIC) against Aeromonas hydrophila and against Vibrio harveyi were 16 µM (≈ 38.5 µg/mL) and at least 32 µM, respectively.
Regarding `CC(C)C[C@H](NC(=O)[C@H](C)NC(=O)[C@H](CC(N)=O)NC(=O)[C@H](C)NC(=O)[C@@H](NC(=O)CNC(=O)[C@H](C)NC(=O)[C@@H](NC(=O)[C@@H](NC(=O)[C@H](CCCCN)NC(=O)[C@H](CCC(N)=O)NC(=O)[C@H](Cc1ccccc1)NC(=O)[C@H](CC(=O)O)NC(=O)[C@H](C)NC(=O)[C@@H](N)CCC(N)=O)C(C)C)C(C)C)C(C)C)C(=O)N[C@@H](C)C(=O)N[C@@H](Cc1cnc[nH]1)C(=O)N[C@@H](CCCN=C(N)N)C(=O)N[C@@H](Cc1ccc(O)cc1)C(=O)N[C@@H](Cc1cnc[nH]1)C(=O)O` [QADFQKVVAGVANALAHRYH], the MIC was at least 35 µM in [1], 71 µM (≈ 156 µg/mL) with Escherichia coli, at least 71 µM against Micrococcus luteus A270 and at least 71 µM against Listeria innocua.
